Patent EP4725957A1, “GROUP OF CYCLIC ALKALINE LIPOPEPTIDE COMPOUNDS, AND PREPARATION METHOD THEREFOR AND USE THEREOF” (Institute of Medicinal Biotechnology, Chinese Academy of …, priority 2023, dated 2024)
≈ marks a conversion by molar mass, not a printed value. Bridge positions count the residues as written; N and C are the ends. Square brackets hold non-standard residues; d marks the D form. Peptide text beside a SMILES is read from it. * marks the point of attachment. Heptanoyl(6-Me) = CC(C)CCCCC(=O)*; dOrn = NCCC[C@@H](N)C(=O)O; Nonanoyl = CCCCCCCCC(=O)*; X1 = CC[C@H](C)CCCCC(=O)*; Heptanoyl = CCCCCCC(=O)*; Octanoyl = CCCCCCCC(=O)*; Orn = NCCC[C@H](N)C(=O)O; Dab = NCC[C@H](N)C(=O)O; Dap = NC[C@H](N)C(=O)O

How the values were obtained:
Type in all cases: cell-based
[1] = tested on: Acinetobacter baumannii ABA19-1; conditions: ABA19-1
Method in brief: (§1)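 MIC by CLSI broth microdilution; MH broth; final drug 64–0.03 mg/L, 2-fold; inoculum (2-4) × 10^5 CFU/mL from 0.5 McFarland suspension of 18-24 h colonies; 35-37°C, 16-20 h; growth controls included.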

[2] = tested on: Acinetobacter baumannii NCTC 13304 (OXA-27); conditions: NCTC 13304
Method in brief: as §1

[3] = tested on: Escherichia coli ATCC BAA-2340 (KPC); conditions: ATCC BAA-2340
Method in brief: as §1

[4] = tested on: Escherichia coli ATCC BAA-2523; conditions: ATCC BAA-2523
Method in brief: as §1

[5] = tested on: Klebsiella pneumoniae ATCC BAA-1705 (KPC); conditions: ATCC BAA-1705
Method in brief: as §1

[6] = tested on: Klebsiella pneumoniae KPN+19-15; conditions: KPN+19-15
Method in brief: as §1

[7] = tested on: Pseudomonas aeruginosa ATCC 27853; conditions: ATCC 27853
Method in brief: as §1

[8] = tested on: Pseudomonas aeruginosa PAE19-3; conditions: PAE19-3
Method in brief: as §1

[9] = Nephrotoxicity assay: in vitro cytotoxicity of HK-2 cells by CCK-8 assay; conditions: human, HK-2 cells (human renal), 72 h incubation with drug-containing medium
Method in brief: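 Compounds in sterile water, diluted to final 500, 250, 200, 100, 50, 25 and 12.5 µg/mL, were applied for 72 h to human HK-2 kidney cells. Absorbance at 450 nm after 3 h CCK-8 gave viability against untreated wells, and IC50 came from logarithmic regression; three replicates.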

Structure (SMILES)	MIC [1] [µg/mL]	MIC [2] [µg/mL]	MIC [3] [µg/mL]	MIC [4] [µg/mL]	MIC [5] [µg/mL]	MIC [6] [µg/mL]	MIC [7] [µg/mL]	MIC [8] [µg/mL]	IC50 at 72 h [9] [µg/mL]
CCCCCCC(=O)N[C@@H](CCN)C(=O)N[C@H](C(=O)N[C@H](CCCN)C(=O)N[C@H]1CCNC(=O)[C@H]([C@@H](C)O)NC(=O)[C@H](CCN)NC(=O)[C@H](CCN)NC(=O)[C@H](CC(C)C)NC(=O)[C@@H](Cc2ccccc2)NC(=O)[C@H](CCN)NC1=O)[C@@H](C)O [Compound 44, Heptanoyl-Dab-Thr-D-Orn-ring(4-10)[Dab-Dab-D-Phe-Leu-Dab-Dab-Thr]] (Heptanoyl-[Dab]T[dOrn][Dab][Dab][dF]L[Dab][Dab]T; lactam 4-C)	0.125 (≈ 0.105 µM)	0.06 (≈ 0.0504 µM)	0.06 (≈ 0.0504 µM)	0.06 (≈ 0.0504 µM)	0.06 (≈ 0.0504 µM)	0.125 (≈ 0.105 µM)	0.5 (≈ 0.42 µM)	2 (≈ 1.68 µM)	308 ± 9.7 (≈ 259 µM)
CCCCCCCCC(=O)N[C@@H](CCN)C(=O)N[C@H](C(=O)N[C@H](CCCN)C(=O)N[C@H]1CCNC(=O)[C@H]([C@@H](C)O)NC(=O)[C@H](CCN)NC(=O)[C@H](CCN)NC(=O)[C@H](CC(C)C)NC(=O)[C@@H](Cc2ccccc2)NC(=O)[C@H](CCN)NC1=O)[C@@H](C)O [Compound 45, Nonanoyl-Dab-Thr-D-Orn-ring(4-10)[Dab-Dab-D-Phe-Leu-Dab-Dab-Thr]] (Nonanoyl-[Dab]T[dOrn][Dab][Dab][dF]L[Dab][Dab]T; lactam 4-C)	0.125 (≈ 0.103 µM)	0.06 (≈ 0.0493 µM)	0.06 (≈ 0.0493 µM)	0.06 (≈ 0.0493 µM)	0.06 (≈ 0.0493 µM)	0.125 (≈ 0.103 µM)	0.5 (≈ 0.411 µM)	2 (≈ 1.64 µM)	139 ± 6.7 (≈ 114 µM)
CC[C@H](C)CCCCC(=O)N[C@@H](CCN)C(=O)N[C@H](C(=O)N[C@@H](CCCN)C(=O)N[C@H]1CCNC(=O)[C@H]([C@@H](C)O)NC(=O)[C@H](CCN)NC(=O)[C@H](CCN)NC(=O)[C@H](CC(C)C)NC(=O)[C@@H](Cc2ccccc2)NC(=O)[C@H](CCN)NC1=O)[C@@H](C)O [Compound 46, (S)-6-methyloctanoyl-Dab-Thr-Orn-ring(4-10)[Dab-Dab-D-Phe-Leu-Dab-Dab-Thr]] (X1-[Dab]T[Orn][Dab][Dab][dF]L[Dab][Dab]T; lactam 4-C)	0.125 (≈ 0.103 µM)	0.06 (≈ 0.0493 µM)	0.03 (≈ 0.0246 µM)	0.03 (≈ 0.0246 µM)	≤0.03	≤0.03	≤0.03	0.25 (≈ 0.205 µM)	287 ± 10.7 (≈ 236 µM)
CC(C)CCCCC(=O)N[C@@H](CCN)C(=O)N[C@H](C(=O)N[C@@H](CCCN)C(=O)N[C@H]1CCNC(=O)[C@H]([C@@H](C)O)NC(=O)[C@H](CCN)NC(=O)[C@H](CCN)NC(=O)[C@H](CC(C)C)NC(=O)[C@@H](Cc2ccccc2)NC(=O)[C@H](CCN)NC1=O)[C@@H](C)O [Compound 47, 6-methylheptanoyl-Dab-Thr-Orn-ring(4-10)[Dab-Dab-D-Phe-Leu-Dab-Dab-Thr]] ({Heptanoyl(6-Me)}-[Dab]T[Orn][Dab][Dab][dF]L[Dab][Dab]T; lactam 4-C)	0.125 (≈ 0.104 µM)	0.06 (≈ 0.0499 µM)	0.03 (≈ 0.0249 µM)	0.03 (≈ 0.0249 µM)	≤0.03	≤0.03	≤0.03	0.25 (≈ 0.208 µM)	358 ± 11.2 (≈ 297 µM)
CCCCCCCC(=O)N[C@@H](CCN)C(=O)N[C@H](C(=O)N[C@@H](CCCN)C(=O)N[C@H]1CCNC(=O)[C@H]([C@@H](C)O)NC(=O)[C@H](CCN)NC(=O)[C@H](CCN)NC(=O)[C@H](CC(C)C)NC(=O)[C@@H](Cc2ccccc2)NC(=O)[C@H](CCN)NC1=O)[C@@H](C)O [Compound 48, Octanoyl-Dab-Thr-Orn-ring(4-10)[Dab-Dab-D-Phe-Leu-Dab-Dab-Thr]] (Octanoyl-[Dab]T[Orn][Dab][Dab][dF]L[Dab][Dab]T; lactam 4-C)	0.125 (≈ 0.104 µM)	0.06 (≈ 0.0499 µM)	0.03 (≈ 0.0249 µM)	0.03 (≈ 0.0249 µM)	≤0.03	≤0.03	≤0.03	0.25 (≈ 0.208 µM)	239 ± 7.4 (≈ 199 µM)
CCCCCCC(=O)N[C@@H](CCN)C(=O)N[C@H](C(=O)N[C@@H](CCCN)C(=O)N[C@H]1CCNC(=O)[C@H]([C@@H](C)O)NC(=O)[C@H](CCN)NC(=O)[C@H](CCN)NC(=O)[C@H](CC(C)C)NC(=O)[C@@H](Cc2ccccc2)NC(=O)[C@H](CCN)NC1=O)[C@@H](C)O [Compound 49, Heptanoyl-Dab-Thr-Orn-ring(4-10)[Dab-Dab-D-Phe-Leu-Dab-Dab-Thr]] (Heptanoyl-[Dab]T[Orn][Dab][Dab][dF]L[Dab][Dab]T; lactam 4-C)	0.125 (≈ 0.105 µM)	0.06 (≈ 0.0504 µM)	0.03 (≈ 0.0252 µM)	0.03 (≈ 0.0252 µM)	0.03 (≈ 0.0252 µM)	0.03 (≈ 0.0252 µM)	0.03 (≈ 0.0252 µM)	0.5 (≈ 0.42 µM)	367 ± 8.7 (≈ 309 µM)
CCCCCCCCC(=O)N[C@@H](CCN)C(=O)N[C@H](C(=O)N[C@@H](CCCN)C(=O)N[C@H]1CCNC(=O)[C@H]([C@@H](C)O)NC(=O)[C@H](CCN)NC(=O)[C@H](CCN)NC(=O)[C@H](CC(C)C)NC(=O)[C@@H](Cc2ccccc2)NC(=O)[C@H](CCN)NC1=O)[C@@H](C)O [Compound 50, Nonanoyl-Dab-Thr-Orn-ring(4-10)[Dab-Dab-D-Phe-Leu-Dab-Dab-Thr]] (Nonanoyl-[Dab]T[Orn][Dab][Dab][dF]L[Dab][Dab]T; lactam 4-C)	0.125 (≈ 0.103 µM)	0.06 (≈ 0.0493 µM)	0.06 (≈ 0.0493 µM)	0.06 (≈ 0.0493 µM)	0.03 (≈ 0.0246 µM)	0.03 (≈ 0.0246 µM)	0.03 (≈ 0.0246 µM)	0.5 (≈ 0.411 µM)	150 ± 5.2 (≈ 123 µM)
CC[C@H](C)CCCCC(=O)N[C@@H](CN)C(=O)N[C@H](C(=O)N[C@H](CO)C(=O)N[C@H]1CCNC(=O)[C@H]([C@@H](C)O)NC(=O)[C@H](CCN)NC(=O)[C@H](CCN)NC(=O)[C@H]([C@@H](C)O)NC(=O)[C@@H](Cc2ccccc2)NC(=O)[C@H](CCN)NC1=O)[C@@H](C)O [Compound 51, (S)-6-methyloctanoyl-Dap-Thr-D-Ser-ring(4-10)[Dab-Dab-D-Phe-Thr-Dab-Dab-Thr]] (X1-[Dap]T[dS][Dab][Dab][dF]T[Dab][Dab]T; lactam 4-C)	0.25 (≈ 0.215 µM)	0.25 (≈ 0.215 µM)	≤0.03	≤0.03	0.25 (≈ 0.215 µM)	0.5 (≈ 0.429 µM)	64 (≈ 55 µM)	4 (≈ 3.44 µM)	> 500
CC(C)CCCCC(=O)N[C@@H](CN)C(=O)N[C@H](C(=O)N[C@H](CO)C(=O)N[C@H]1CCNC(=O)[C@H]([C@@H](C)O)NC(=O)[C@H](CCN)NC(=O)[C@H](CCN)NC(=O)[C@H]([C@@H](C)O)NC(=O)[C@@H](Cc2ccccc2)NC(=O)[C@H](CCN)NC1=O)[C@@H](C)O [Compound 52, 6-methylheptanoyl-Dap-Thr-D-Ser-ring(4-10)[Dab-Dab-D-Phe-Thr-Dab-Dab-Thr]] ({Heptanoyl(6-Me)}-[Dap]T[dS][Dab][Dab][dF]T[Dab][Dab]T; lactam 4-C)	0.25 (≈ 0.217 µM)	0.25 (≈ 0.217 µM)	≤0.03	≤0.03	0.25 (≈ 0.217 µM)	0.5 (≈ 0.435 µM)	64 (≈ 55.6 µM)	4 (≈ 3.48 µM)	> 500
CCCCCCCC(=O)N[C@@H](CN)C(=O)N[C@H](C(=O)N[C@H](CO)C(=O)N[C@H]1CCNC(=O)[C@H]([C@@H](C)O)NC(=O)[C@H](CCN)NC(=O)[C@H](CCN)NC(=O)[C@H]([C@@H](C)O)NC(=O)[C@@H](Cc2ccccc2)NC(=O)[C@H](CCN)NC1=O)[C@@H](C)O [Compound 53, Octanoyl-Dap-Thr-D-Ser-ring(4-10)[Dab-Dab-D-Phe-Thr-Dab-Dab-Thr]] (Octanoyl-[Dap]T[dS][Dab][Dab][dF]T[Dab][Dab]T; lactam 4-C)	0.25 (≈ 0.217 µM)	0.25 (≈ 0.217 µM)	≤0.03	≤0.03	0.25 (≈ 0.217 µM)	0.5 (≈ 0.435 µM)	64 (≈ 55.6 µM)	4 (≈ 3.48 µM)	> 500
CCCCCCC(=O)N[C@@H](CN)C(=O)N[C@H](C(=O)N[C@H](CO)C(=O)N[C@H]1CCNC(=O)[C@H]([C@@H](C)O)NC(=O)[C@H](CCN)NC(=O)[C@H](CCN)NC(=O)[C@H]([C@@H](C)O)NC(=O)[C@@H](Cc2ccccc2)NC(=O)[C@H](CCN)NC1=O)[C@@H](C)O [Compound 54, Heptanoyl-Dap-Thr-D-Ser-ring(4-10)[Dab-Dab-D-Phe-Thr-Dab-Dab-Thr]] (Heptanoyl-[Dap]T[dS][Dab][Dab][dF]T[Dab][Dab]T; lactam 4-C)	0.25 (≈ 0.22 µM)	0.25 (≈ 0.22 µM)	0.03 (≈ 0.0264 µM)	0.03 (≈ 0.0264 µM)	0.25 (≈ 0.22 µM)	0.5 (≈ 0.44 µM)	64 (≈ 56.3 µM)	8 (≈ 7.04 µM)	> 500
